The text below walks through data of US20230323358A1, “COMPOSITION AND USE OF siRNAs AGAINST VEGFR2 AND TGF-BETA1 IN COMBINATION THERAPY FOR CANCER” (Sirnaomics, Inc., priority 2021, published 2023).

Where two headings read alike, the source gives them in different places. Oligonucleotides are written 5' to 3', each unit as a sugar letter and its base; * is a phosphorothioate linkage, no mark a phosphodiester; rarer units and linkages stand in square brackets, end groups in braces. Plain capitals give the bases only. {P} = phosphorylation (indicated by P); d = 2'-deoxy (DNA); m = 2'-O-methyl; r = 2'-OH (RNA); f = 2'-fluoro

As a reminder, the EC50 is the concentration that produces a half-maximal response.

Data set [1] deals with B 16-F0 cells. Nature of the data set: In vivo pharmacodynamics on melanoma (B16) in immunocompetent mouse model. The following applies: positive control, 4 mg/kg i.p. QW. The protocol:
The STP355 drug used in this example is the STP355 drug prepared in Example 9. C57BL/6J mice were inoculated with B 16-F0 cells subcutaneously on the back, inoculation volume: 1×10^6/100 µL/mice, 50 mice were inoculated, location: the right back of the mice. The average tumor volume was 80~100 mm^3 and started to be administered in groups. The dose of 2 mg/kg was administered intravenously, twice a week, for a total of 8 administrations, and the positive control group was administered with cisplatin, […], A total of 8 doses were administered.

Data set [2] relates to TGF-β1. Nature of the data set: EC50 of TGF-β1 siRNA candidates before and after modification, knockdown in cells. It counts as cell-based. The settings on record: 293T cells, homo, 24h, 24well (second TGF-β1 table).
Data set [3] has as its system TGF-β1. The data set is described as above. It counts as cell-based, human. The settings on record: homo. The protocol: DLD-1, RKO, U87-MG and PANC-1 cells were seeded into 24-well cell plates (1 × 10^5/well), and then siRNAs (21mer or negative control) were transfected with commercial transfection reagent (lipo2000). The siRNA transfection concentration was 100 nM. Untreated cells were set as a blank control. Total RNA was extracted from cells 24 h after transfection. Reverse transcription was performed using the kit to obtain cDNA according to the manufacturer’s instructions. Relative levels of target gene TGF- β1 mRNA expression were determined by real-time PCR, normalized to the housekeeping gene β-actin. Gene knockdown effectiveness was expressed as a percentage of the blank control. […] Therefore, TF1-21-hm3# and TF1-21-hm6# were selected as candidate sequences, and these two sequences were modified (see Table 4 for modified sequences).
The EC50 of candidate sequences before and after modification in different cells (U87-MG, DLD-1, SK-Hep-1, BxPC3, A549, HUCCT, PANC-1 and RKO) were compared. U87-MG, DLD-1, SK-Hep-1, BxPC3, A549, HUCCT, PANC-1 and RKO cells were seeded in 24-well cell plates (1 × 10^5/well) and transfected with multiple concentration gradients in different cells for siRNA candidates (modified or unmodified), use the same procedure as for primary screening. Finally, the data were plotted using the software GraphPad Prism8 and EC50 values were calculated.

Data set [4] has as its system MC38-hPDL1 cells. Nature of the data set: In vivo pharmacodynamics on humanized PDL1 locus colorectal cancer tumors (MC38-hPDL1) in immunocompetent mice. Set-up: species or system C57BL/6J mice. The following applies: positive control 4mpk, BIW*4W, I.P. The protocol: The STP355 drug used in this example is the STP355 drug prepared in Example 9. C57BL/6J mice were subcutaneously inoculated with humanized PDL1 locus colorectal cancer tumor MC38-hPDL1 cells on the back, inoculation volume: 1×10^6/100 µL/mouse, inoculation location: above the right thigh of the mouse. When the average tumor volume reached 100 mm^3, group administration was started, divided into 4 groups, 8 animals/group. In this experiment, the doses of 4 mg/kg and 6 mg/kg were tested, and a model group was established, and the positive control group Tecentrip (atezolizumab) . The drug was administered twice a week for a total of 8 times. On the 0th, 3rd, 7th, 10th, 14th, 17th, 21st, 24th and 28th days, the tumor volume was measured with a vernier caliper, and the tumor growth inhibition rate TGI% was calculated according to the formula.
Calculation formula: TGI % = [1-(Ti-T0)/ (Vi-V0)] ×100%. • Ti represents the mean tumor volume of the treatment group at a certain time point, • T0 represents the mean tumor volume of the treatment group on day 0, • Vi represents the mean tumor volume of the model group at the same time point as Ti, • V0 represents the mean tumor volume of the model group at day 0.

Take `N.N.[Cl][Pt][Cl]` [cisplatin]: in data set [1], the anti-tumor effect result was “significant anti-tumor effects”.

Take “TF1-21-hm6#mod: Modified (2′F, 2′OME, phosphorylation) siRNA targeting TGF-β1; sense SEQ ID 148, antisense SEQ ID 152 (sense mCmGmGmCmAmGfCfUfGmUmAmCmAmUmUmGmAmCmUdTdT; antisense {P}-mAfGmUmCmAmAmUmGmUmAmCmAmGfCmUmGmCmCmGdTdT)”: the EC50 in data set [2] was 0.1 nM; in data set [3] (A549 cells, 24 h, 24well (Table 6), read-out: EC50 (nM, 24 h, 24well) A549), 0.22 nM; in data set [3] (BxPC3 cells, 24 h, 24well (Table 6), read-out: EC50 (nM, 24 h, 24well) BxPC3), 0.01 nM; in data set [3] (RKO cells, 24 h, 24well (Table 6), read-out: EC50 (nM, 24 h, 24well) RKO) it was 0.04 nM; in data set [3] (SK-Hep1 cells, 24 h, 24well (Table 6), read-out: EC50 (nM, 24 h, 24well) SK-Hep1) it was 0.59 nM; in data set [3] (U87MG cells, 24 h, 24well (Table 6), read-out: EC50 (nM, 24 h, 24well) U87MG), 0.09 nM.

Regarding “TF1-20190711-1#: siRNA targeting TGF-β1 mRNA; sense SEQ ID 1, antisense SEQ ID 2 (sense GCAGAGUACACACAGCAUATT; antisense UAUGCUGUGUGUACUCUGCTT; sugars from the 5' end r19 d2, backbone not given here)”, the EC50 in data set [2] was found to be 0.08 nM; in data set [3] (Hucct cells, 24h, 24well (second TGF-β1 table), read-out: EC50 (24h, nM, 24well) Hucct), 0.002 nM; in data set [3] (SK-Hep 1 cells, 24h, 24well (second TGF-β1 table), read-out: EC50 (24h, nM, 24well) SK-Hep 1), 1.6 nM.

As for atezolizumab [Tecentrip], the “tumor weight versus model group” value in data set [4] was “significantly lower than the model group”. The “tumor volume versus model control group” value in data set [4] (day 7 to day 28) is listed as “significantly smaller than that of the model control group”.
